Test results taken from patent US5444077A, “Ameliorant of cerebral circulation and optical isomer of NB-818, processes for its use” (Banyu Pharmaceutical Co., Ltd., priority 1987, dated 1995).

Legend:
vertebral artery [1] = assay: Effect to increase the blood flow of the vertebral artery in anesthetized beagle dogs (Pharmacological Test Example 1); type: in vivo, beagle dog
Description: (§1) Effect to increase the blood flow of the vertebral artery
(§2) A male or female beagle dog having a body weight of about 10 kg was anesthetized by subcutaneous administration of 35 mg/kg of sodium pentobarbital, and the level of anesthesia was maintained by continuous injection of from 4 to 6 mg/kg/hr of sodium pentobarbital.
(§3) The test was conducted by maintaining the blood gases under optimum conditions under artificial respiration. A drug was dissolved in a 0.9 wt % saline containing 10% by weight of polyethylene glycol and 10% by weight of ethanol, and a predetermined amount of the solution was intravenously or intraduodenally injected to the beagle dog. Then, the blood flow, the blood pressure and the heart rate were measured.
The blood flow was measured by an electromagnetic flow meter by means of blood flow probes attached to the vertebral artery and the femoral artery of the beagle dog. The blood pressure was measured by a pressure transducer connected to a canule inserted to the left femoral artery of the beagle dog.

vertebral artery [2] = assay: Effect of optical isomers to increase the blood flow of the vertebral artery in anesthetized beagle dogs (Pharmacological Test Example 6); type: in vivo, beagle dog; settings: intravenous
Description: as §1, §2
as §3, with “intravenously” for “intravenously or intraduodenally”
The blood flow was measured by an electromagnetic flow meter by means of blood flow probes attached to the vertebral artery and the femoral artery of the beagle dog. The blood pressure was measured by a pressure transducer connected to a canule inserted to the left femoral artery of the beagle dog. Further, the heart rate was measured by a heart rate counter based on the pulse wave of blood pressure.
The levo-rotatory optical isomer of 2-carbamoyloxymethyl-4-(2,3-dichlorophenyl)-6-methyl-1,4-dihydropyridine-3,5-dicarboxylic acid 3-isopropyl ester 5-methyl ester will be hereinafter referred to simply as (-)-NB-818, and the dextro-rotatory optical isomer thereof will be referred to simply as (+)-NB-818.

vertebral artery [3] = assay: as above; type: in vivo, beagle dog
[4] = system: cerebral isochemia models of Mongolian gerbils; assay: Effect to prolong the life in the cerebral ischemia models of Mongolian gerbils (Pharmacological Test Example 4); type: in vivo, Mongolian gerbil; settings: 0.01 mg/kg, intraperitoneal; control 100
Description: Effect to prolong the life in the cerebral isochemia models of Mongolian gerbils
A male Mongolian gerbil having a body weight of about 70 g was anesthetized by intraperitoneal administration of 70 mg/kg of ketamine hydrochloride. Then, left and right common carotid arteries were exposed and closed by scorbil clips for 20 minutes. Then, the clips were removed to regain the blood flow. Thirty minutes later, a drug dissolved in a 0.9 wt % saline containing 10% by weight of polyethylene glycol 300 and 10% by weight of ethanol, was intraperitoneally administered. The effect to prolong the life was determined by observing mortality and the neurotic symptom during 8 hours or 24 hours from the administration of the drug.

[5] = system: cerebral regional blood flow; assay: Effect to increase the cerebral regional blood flow in monkeys (Pharmacological Test Example 3); type: in vivo, Rhesus monkey; settings: 0.01 mg/kg, intravenous
Description: Effect to increase the cerebral regional blood flow in monkeys
A male Rhesus monkey having a body weight of from 5.0 to 11.0 kg was anesthetized with ketamine hydrochloride (1 mg/kg by intravenous injection) and sodium pentobarbital (30 mg/kg by intraperitoneal injection), and an endotracheal tube was inserted for artificial respiration. Then, the animal's head was fixed to a stereotaxic apparatus. The cerebral blood flow was calculated from the hydrogen gas clearance curve measured by means of needle type electrodes for hydrogen gas clearance inserted to the cerebral cortex after incising the head and boring a hole in the occipital lobe.
The drug was dissolved in a 0.9 wt % saline containing 10% by weight of polyethylene glycol 300 and 10% by weight of ethanol, and the solution was intravenously administered.

[6] = system: cerebral regional blood flow; assay: Effect to increase the cerebral regional blood flow in rabbits (Pharmacological Test Example 2); type: in vivo, rabbit; settings: 0.01 mg/kg, intravenous
Description: A male rabbit having a body weight of about 3 kg was immobilized by intravenous injection of gallamine (2-3 mg/kg) and secured to an apparatus for fixing the brain position. Then, platinum electrodes for measuring hydrogen gas clearance were inserted to the top of cerebral cortex, to the center of the cerebellum and to the femoral muscle, and the blood flows were measured. The drug was dissolved in a 0.9 wt % saline containing 10% by weight of polyethylene glycol and 10% by weight of ethanol, and the solution was intravenously injected.

amnesia induced by ECS [7] = assay: Effect against amnesia induced by ECS, passive avoidance, pretreatment with drug administration (Pharmacological Test Example 5); type: in vivo, rat; settings: 3 mg/kg p.o.; for Latent reaction time, acquisition test: control 8.6 ± 1.3; for Latent reaction time, 2 hours later: control 49.2 ± 8.1; for Latent reaction time, 2 hours later / Latent reaction time, 24 hours later: * P < 0.05 vs control; for Latent reaction time, 24 hours later: control 85.6 ± 22.0
Text: (§4) By using male rats having a body weight of about 200 g, the antiamnesic effect was examined on the basis of one trial passive avoidance reaction as an index. Namely, a rat is put in a light chamber of an operant box comprising the light chamber and a dark chamber, and when the rat entered into the dark chamber, an electric stimulation (5 mA for 10 seconds) was applied from the floor and immediately an electric shock (30 mA, 0.75 second) (hereinafter referred to simply as ECS) was applied to the head of the rat. Two hours or 24 hours after the ECS, the rat was put in the light chamber, and the time until the rat entered from the light chamber to the dark chamber (the latent reaction time) was measured,
The drug was suspended in a 0.5 wt % methyl cellulose and orally administered three times at intervals of 24 hours so that the final administration was conducted one hour prior to ECS.

amnesia induced by ECS [8] = assay: Effect against amnesia induced by ECS, passive avoidance, post-treatment with drug administration (Pharmacological Test Example 5); type: in vivo, rat; settings: 1 mg/kg p.o.
Text: as §4
In a separate test, the drug was orally administered at the same time as ECS, and the latent reaction time was measured two hours later, or NB-818 was again administered 22 hours later and then the latent reaction time was measured two hours later.

[9] = Acute toxicity (LD50) upon oral administration to rats; settings: rat, in vivo
Text: Thus, it is particularly advantageous for the treatment and prevention of the above diseases, for which continuous administration for a long period of time is obliged. Thus, its value as a pharmaceutical is very high.

COC(=O)C1=C(C)NC(COC(N)=O)=C(C(=O)OC)C1c1cccc(Cl)c1Cl (stereo not shown) [Compound A, 2-Carbamoyloxymethyl-4-(2,3-dichlorophenyl)-6-methyl-1,4-dihydropyridine-3,5-dicarboxylic acid 3,5-dimethyl ester]
Change in blood pressure (vertebral artery [1]; 0.01 mg/kg iv): -13%
Change in femoral artery blood flow (vertebral artery [1]; 0.01 mg/kg iv): +14%
Change in vertebral artery blood flow (vertebral artery [1]; 0.01 mg/kg iv): +76%
Effective period (Half-life period) (vertebral artery [1]; 0.01 mg/kg iv): 9 min

CCCCOC(=O)C1=C(COC(N)=O)NC(C)=C(C(=O)OC)C1c1cccc(Cl)c1Cl (stereo not shown) [Compound D, 2-Carbamoyloxymethyl-4-(2,3-dichlorophenyl)-6-methyl-1,4-dihydropyridine-3,5-dicarboxylic acid 3-butyl ester 5-methyl ester]
Change in blood pressure (vertebral artery [1]; 0.01 mg/kg iv): -14%
Change in femoral artery blood flow (vertebral artery [1]; 0.01 mg/kg iv): +13%
Change in vertebral artery blood flow (vertebral artery [1]; 0.01 mg/kg iv): +80%
Effective period (Half-life period) (vertebral artery [1]; 0.01 mg/kg iv): 44 min

CCOC(=O)C1=C(COC(N)=O)NC(C)=C(C(=O)OC)C1c1cccc(Cl)c1Cl (stereo not shown) [Compound B, 2-Carbamoyloxymethyl-4-(2,3-dichlorophenyl)-6-methyl-1,4-dihydropyridine-3,5-dicarboxylic acid 3-ethyl ester 5-methyl ester]
Change in blood pressure (vertebral artery [1]; 0.01 mg/kg iv): -14%
Change in femoral artery blood flow (vertebral artery [1]; 0.01 mg/kg iv): +16%
Change in vertebral artery blood flow (vertebral artery [1]; 0.01 mg/kg iv): +50%
Effective period (Half-life period) (vertebral artery [1]; 0.01 mg/kg iv): 36 min

COC(=O)C1=C(C)NC(COC(N)=O)=C(C(=O)OC(C)C)C1c1cccc(Cl)c1Cl (single isomer, unassigned; (+)) [(+)-NB-818]
Change in femoral artery blood flow (vertebral artery [2]; 0.1 mg/kg): +18.8%
Change in heart rate (vertebral artery [2]; 0.1 mg/kg): +3.8%
Change in blood pressure (vertebral artery [3]; 0.1 mg/kg, intravenous): -8.1%
Change in vertebral artery blood flow (vertebral artery [3]; 0.1 mg/kg, intravenous): +56.8%
Effective period (Half-life period) (vertebral artery [3]; 0.1 mg/kg, intravenous): 15.5 min

CCCOC(=O)C1=C(COC(N)=O)NC(C)=C(C(=O)OC)C1c1cccc(Cl)c1Cl (stereo not shown) [Compound C, 2-Carbamoyloxymethyl-4-(2,3-dichlorophenyl)-6-methyl-1,4-dihydropyridine-3,5-dicarboxylic acid 3-propyl ester 5-methyl ester]
Change in blood pressure (vertebral artery [1]; 0.01 mg/kg iv): -15%
Change in femoral artery blood flow (vertebral artery [1]; 0.01 mg/kg iv): +20%
Change in vertebral artery blood flow (vertebral artery [1]; 0.01 mg/kg iv): +95%
Effective period (Half-life period) (vertebral artery [1]; 0.01 mg/kg iv): 42 min

COC(=O)C1=C(C)NC(COC(N)=O)=C(C(=O)OC(C)C)C1c1cccc(Cl)c1Cl (single isomer, unassigned; (-)) [(-)-NB-818, levo-rotatory optical isomer of 2-carbamoyloxymethyl-4-(2,3-dichlorophenyl)-6-methyl-1,4-dihydropyridine-3,5-dicarboxylic acid 3-isopropyl ester 5-methyl ester]
Change in femoral artery blood flow (vertebral artery [2]; 0.01 mg/kg): +3.3%
Change in heart rate (vertebral artery [2]; 0.01 mg/kg): +3.4%
Change in vertebral artery blood flow (vertebral artery [2]; 0.01 mg/kg): +123.2%
Effective period (Half-life period) (vertebral artery [2]; 0.01 mg/kg): 44 min
Change in blood pressure (vertebral artery [3]; 0.01 mg/kg, intravenous): -26.6%

COC(=O)C1=C(C)NC(C)=C(C(=O)OCCN(C)Cc2ccccc2)C1c1cccc([N+](=O)[O-])c1 (stereo not shown) [Nicardipine, nicardipine]
Mortality, 0-8 hours [4]: 83.3%
Mortality, 0-24 hours [4]: 91.7%
Change in blood pressure [5]: -24%
Change in cerebral cortex blood flow [5]: +16%
Change in heart rate [5]: +18%
Effective period (Half-life period) [5]: < 30 min

COCCOC(=O)C1=C(C)NC(C)=C(C(=O)OC(C)C)C1c1cccc([N+](=O)[O-])c1 (stereo not shown) [Nimodipine, nimodipine]
Blood flow change, cerebellum blood flow [6]: +55%
Blood flow change, cerebral blood flow [6]: +68%
Blood flow change, femoral muscle blood flow [6]: -5%
Effective period (Half-life period) [6]: 20.6 min
Mortality, 0-8 hours [4]: 83.3%
Mortality, 0-24 hours [4]: 91.7%
Change in blood pressure (vertebral artery [1]; 0.3 mg/kg id (intraduodenal)): -29%
Change in femoral artery blood flow (vertebral artery [1]; 0.3 mg/kg id (intraduodenal)): +75%
Change in vertebral artery blood flow (vertebral artery [1]; 0.3 mg/kg id (intraduodenal)): +102%
Effective period (Half-life period) (vertebral artery [1]; 0.3 mg/kg id (intraduodenal)): 150 min
Latent reaction time, acquisition test (amnesia induced by ECS [7]): 9.6 ± 1.3 s
Latent reaction time, 2 hours later (amnesia induced by ECS [7]): 103.9 ± 22.2 s
Latent reaction time, 24 hours later (amnesia induced by ECS [7]): 132.1 ± 25.5 s
Change in blood pressure (vertebral artery [3]; 0.3 mg/kg, intraduodenal): -29%
Change in femoral artery blood flow (vertebral artery [3]; 0.3 mg/kg, intraduodenal): +75%
Change in heart rate (vertebral artery [3]; 0.3 mg/kg, intraduodenal): -23%
Change in vertebral artery blood flow (vertebral artery [3]; 0.3 mg/kg, intraduodenal): +102%
Effective period (Half-life period) (vertebral artery [3]; 0.3 mg/kg, intraduodenal): 150 min

COC(=O)C1=C(C)NC(COC(N)=O)=C(C(=O)OC(C)C)C1c1cccc(Cl)c1Cl (stereo not shown) [NB-818, 2-Carbamoyloxymethyl-4-(2,3-dichlorophenyl)-6-methyl-1,4-dihydropyridine-3,5-dicarboxylic acid 3-isopropyl ester 5-methyl ester]
Blood flow change, cerebellum blood flow [6]: +85%
Blood flow change, cerebral blood flow [6]: +82%
Blood flow change, femoral muscle blood flow [6]: +3%
Effective period (Half-life period) [6]: 44.6 min
Mortality, 0-8 hours [4]: 38.5%
Mortality, 0-24 hours [4]: 76.9%
Latent reaction time, acquisition test (amnesia induced by ECS [8]; control 9.0 ± 1.5): 8.3 ± 1.2 s
Latent reaction time, 2 hours later (amnesia induced by ECS [8]; control 30.6 ± 3.0, * P < 0.05 vs control): 88.5 ± 17.9 s
Latent reaction time, 24 hours later (amnesia induced by ECS [8]; control 42.5 ± 9.0, * P < 0.05 vs control): 111.8 ± 21.5 s
Change in blood pressure (vertebral artery [1]; 0.01 mg/kg iv): -14%
Change in femoral artery blood flow (vertebral artery [1]; 0.01 mg/kg iv): +12%
Change in vertebral artery blood flow (vertebral artery [1]; 0.01 mg/kg iv): +109%
Effective period (Half-life period) (vertebral artery [1]; 0.01 mg/kg iv): 57 min
Change in blood pressure (vertebral artery [1]; 0.1 mg/kg id (intraduodenal)): -18%
Change in femoral artery blood flow (vertebral artery [1]; 0.1 mg/kg id (intraduodenal)): +36%
Change in vertebral artery blood flow (vertebral artery [1]; 0.1 mg/kg id (intraduodenal)): +135%
Effective period (Half-life period) (vertebral artery [1]; 0.1 mg/kg id (intraduodenal)): > 300 min
influence over the blood pressure and the heart rate (vertebral artery [1]; at dose level selectively increasing vertebral artery blood flow): minimum
Change in blood pressure [5]: -20%
Change in cerebral cortex blood flow [5]: +28%
Change in heart rate [5]: +16%
Effective period (Half-life period) [5]: > 60 min
Latent reaction time, acquisition test (amnesia induced by ECS [7]): 11.4 ± 1.3 s
Latent reaction time, 2 hours later (amnesia induced by ECS [7]): 128.8 ± 21.8 s
Latent reaction time, 24 hours later (amnesia induced by ECS [7]): 189.6 ± 24.6 s
LD50 [9]: ≥ 3000 mg/kg
